{"source": "patent US6864373B2", "about": "“Stable amorphous celecoxib composite and process therefor” (Pharmacia Corporation, priority 2002, dated 2005)", "test": "Solubility of celecoxib in aqueous media", "assay_type": "physicochemical", "method": "However, celecoxib presents certain challenges for formulation as a rapid-onset dosage form, particularly as a rapid-onset oral dosage form. For example, celecoxib has very low solubility in aqueous media (about 2 to about 5 μg/ml) and therefore is not readily dissolved and dispersed for rapid absorption in the gastrointestinal tract when administered orally, for example in tablet or capsule form. In addition, celecoxib has a relatively high dose requirement further increasing difficulties of providing a sufficient therapeutically effective dose for rapid absorption.", "data": [{"smiles": "Cc1ccc(-c2cc(C(F)(F)F)nn2-c2ccc(S(N)(=O)=O)cc2)cc1", "note": "[celecoxib, 4-[5-(4-methylphenyl)-3-(trifluoromethyl)-1H-pyrazol-1-yl]benzenesulfonamide]", "values": [{"measurement": "solubility", "value": "2 to 5", "unit": "µg/mL"}]}]}
